# Data as given in patent US20230173029A1, “TREATMENT OF CARDIAC REMODELLING” (UNIVERSITETET I OSLO, priority 2020, published 2023).
# Experiments:
# Assay type in all cases: in vivo, rat
# Myh7 = Myh7 gene expression in left ventricle tissue by qPCR; settings: HT Dahl/SS rats
# Description: (§1) A total of 29 adult Dahl salt-sensitive (Dahl/SS) male rats with an initial weight of 150 to 200 g were included in the study. Rats were purchased from Charles River Laboratories (USA) and housed in a room with a 12/12-hour light cycle, a temperature of 21° C., and a humidity of 55%. Rats were maintained on a normal salt diet up to seven weeks of age. Twenty-two Dahl/SS were then randomly switched to a high salt diet for 6 weeks to induce hypertension, whilst 7 rats were kept normotensive (NT) on normal salt diet. Drinking water and food was provided ad libitum.
# After 2 weeks of high salt diet, 15 hypertensive (HT) rats were started on treatment with proANP31-67. Rats treated with proANP31-67 received one of two dosages: 50 ng/kg/day (n=8) or 100 ng/kg/day (n=7). […]
# Total RNA was extracted from left ventricle tissue using an RNeasy Fibrous Tissue Mini Kit (Qiagen, Cat. #74704). RNA concentration and quality was assessed by NanoDrop ND-1000 Spectrophotometer (Thermo Fisher Scientific). cDNA synthesis was performed using an iSCRIPT synthesis kit (Bio-Rad). Transcript levels of Mhy7 (Rn00568328_m1) and Rpl32 (Rn00820748_g1) were determined using TaqMan assays (Applied Biosystems) detected on a QuantStudio3 (Thermo Fisher Scientific) and analysed using QuantStudio™ Design (Thermo Fisher Scientific). Mhy7 mRNA levels were calculated by the ΔΔCt method and normalized to Rpl32 transcript value. […]
# [1] = tested on: Dahl salt-sensitive (Dahl/SS) male rats; experiment: Transthoracic echocardiography of cardiac structure and function in hypertensive Dahl/SS rats; settings: for E/A (ratio E wave to A wave) / EF (ejection fraction) / FS (fractional shortening) / IVS; d (inter-ventricular septum, diastole) / IVS; s (inter-ventricular septum, systole) / LA (left atrium diameter) / LV Mass (left ventricular mass) / LV Vol; d (left ventricular volume, diastole) / LV Vol; s (left ventricular volume, systole) / LVPW; d (left ventricular posterior wall, diastole) / LVPW; s (left ventricular posterior wall, systole) / RWT (relative wall thickness): HT Dahl/SS rats on high salt diet, at 6 weeks, mean ± SEM
# Description: as §1
# (§2) After 2 weeks of high salt diet, 15 hypertensive (HT) rats were started on treatment with proANP31-67. Rats treated with proANP31-67 received one of two dosages: 50 ng/kg/day (n=8) or 100 ng/kg/day (n=7). A total of 14 rats received only vehicle: control rats on a normal salt diet (n=7); and HT rats on a high salt diet (n=7). Rats were randomly assigned to the 3 groups (i.e. control normal salt; high salt untreated; high salt plus treatment).
# (§3) Drug or vehicle was delivered via Alzet osmotic mini-pumps (Model 2004; mean pumping rate […], mean fill volume […]) implanted subcutaneously (as instructed by the manufacturer) for 28 days. Animals were treated with buprenorphine (0.05 mg/kg s.c.) as analgesic 30 minutes before and up to 1 day following implantation of pumps.
# Cardiac function was assessed by transthoracic echocardiography using a VEVO 2100 high resolution in vivo imaging system from VisualSonics (Canada). Briefly, animals were maintained under anesthesia (1.5-2% isoflurane mixed with oxygen) on a pre-warmed ECG transducer pad with body temperature and ECG monitored. Measurements were made with an MS250 transducer, frequency set at 24 MHz. M-mode in the parasternal long axis view was performed to assess the function and dimension of the left ventricle and left atrium. LVEF was calculated as 100×((LV Vol;d−LV Vol;s)/LV Vol;d). LV mass was estimated by the formula: 1.053×((LVID;d+LVPW;d+IVS;d)3−LVID;d3). Relative wall thickness (RWT) was calculated as 2×LVPW;d/LVID;d.21 Normal geometry of the heart was defined as the 95th percentile for both LV Mass and RWT of the NT group. E and A waves in left ventricular filling velocities were assessed via pulsed-wave Doppler in a parasternal long axis view. Echocardiographic analysis were performed by an operator blinded to treatment group.
# Experiments were performed as described above in Example 1, using a group of 8 Dahl/SS rats which, at 7 weeks of age, were switched to a high salt diet as described above. After 2 weeks of high salt diet, this group was started on proANP31-67 treatment. The rats were administered proANP31-67 at a renal sub-therapeutic dosage of 25 ng/kg/day.
# [2] = tested on: left ventricular cardiomyocytes; experiment: Cardiomyocyte isolation and t-tubule structure (di-8-ANEPPS confocal imaging); settings: HT Dahl/SS rats, 50 or 100 ng/kg/day s.c. (pooled)
# Description: as §1, §2, §3
# A subset of rats was used for analyses of t-tubule structure in isolated left ventricular cardiomyocytes. These animals were anaesthetised as described above and euthanised by removal of the heart. […]
# Cardiomyocytes were then isolated as previously described (Frisk et al., American Journal of Physiology—Heart and Circulatory 307: H609-620, 2014). […] Fluorescence was excited at 488 nm and emitted light above 500 nm was measured. t-tubule captures were recorded with 1871×1871-pixel XY images, recorded as z-stacks (spatial resolution: 77×77×500 nm). […] Cell area, t-tubule density and distance to nearest t-tubule or sarcolemmal membrane were analysed as previously described (Frisk et al., Cardiovascular Research 112: 445-451, 2016).
# [3] = 50 or 100 ng/kg/day s.c. (pooled) for 28 days
substance,measurement,setting,value
"proANP31-67: Human proANP31-67, linear peptide fragment of proANP consisting of SEQ ID NO: 1; also known as vessel dilator, VSDL (EVVPPQVLSEPNEEAGAALSPLPEVPPWTGEVSPAQR; listed as Homo sapiens)",expression of the Myh7 gene associated with adverse cardiac hypertrophy,"Myh7; 25 ng/kg/day s.c., FIG. 5F",attenuated
same,expression of the Myh7 gene associated with adverse cardiac hypertrophy,"Myh7; 50 or 100 ng/kg/day s.c. (pooled), FIG. 1F",attenuated
same,E/A (ratio E wave to A wave),[1]; 25 ng/kg/day s.c.,1.47 ± 0.08
same,EF (ejection fraction),[1]; 25 ng/kg/day s.c.,79.6 ± 1.6%
same,FS (fractional shortening),[1]; 25 ng/kg/day s.c.,49.89 ± 1.7%
same,"IVS; d (inter-ventricular septum, diastole)",[1]; 25 ng/kg/day s.c.,1.67 ± 0.03 mm
same,"IVS; s (inter-ventricular septum, systole)",[1]; 25 ng/kg/day s.c.,3.12 ± 0.10 mm
same,LA (left atrium diameter),[1]; 25 ng/kg/day s.c.,4.13 ± 0.17 mm
same,LV Mass (left ventricular mass),[1]; 25 ng/kg/day s.c.,872.5 ± 22.5 mg
same,"LV Vol; d (left ventricular volume, diastole)",[1]; 25 ng/kg/day s.c.,288.5 ± 15.4 µL
same,"LV Vol; s (left ventricular volume, systole)",[1]; 25 ng/kg/day s.c.,59.44 ± 6.2 µL
same,"LVPW; d (left ventricular posterior wall, diastole)",[1]; 25 ng/kg/day s.c.,1.67 ± 0.04 mm
same,"LVPW; s (left ventricular posterior wall, systole)",[1]; 25 ng/kg/day s.c.,2.81 ± 0.08 mm
same,RWT (relative wall thickness),[1]; 25 ng/kg/day s.c.,0.46 ± 0.02
same,E/A (ratio E wave to A wave),[1]; [3],1.6 ± 0.1
same,EF (ejection fraction),[1]; [3],78.2 ± 1.9%
same,FS (fractional shortening),[1]; [3],48.7 ± 1.8%
same,"IVS; d (inter-ventricular septum, diastole)",[1]; [3],1.7 ± 0.0 mm
same,"IVS; s (inter-ventricular septum, systole)",[1]; [3],3.1 ± 0.0 mm
same,LA (left atrium diameter),[1]; [3],4.2 ± 0.1 mm
same,LV Mass (left ventricular mass),[1]; [3],891.7 ± 12.9 mg
same,"LV Vol; d (left ventricular volume, diastole)",[1]; [3],265.1 ± 12.4 µL
same,"LV Vol; s (left ventricular volume, systole)",[1]; [3],58.0 ± 6.3 µL
same,"LVPW; d (left ventricular posterior wall, diastole)",[1]; [3],1.8 ± 0.0
same,"LVPW; s (left ventricular posterior wall, systole)",[1]; [3],2.9 ± 0.1
same,RWT (relative wall thickness),[1]; [3],0.52 ± 0.02
same,diastolic function as defined by E/A ratio,"[1]; HT Dahl/SS rats, 25 ng/kg/day s.c., FIG. 5C",preserved diastolic function
same,change in LA diameter,"[1]; HT Dahl/SS rats, 25 ng/kg/day s.c., FIG. 5D",much smaller change in LA diameter than the untreated HT group
same,proportion of treated HT rats displaying normal cardiac geometry,"[1]; HT Dahl/SS rats, 25 ng/kg/day s.c., FIG. 5E",all
same,"E/A ratio, relative fold change to NT controls","[1]; HT Dahl/SS rats, 50 or 100 ng/kg/day s.c. (pooled), FIG. 1C",preserved
same,left atrium diameter larger compared to NT rats,"[1]; HT Dahl/SS rats, 50 or 100 ng/kg/day s.c. (pooled), FIG. 1D",about 10%
same,proportion of treated HT rats showing normal geometry (LV mass and RWT),"[1]; HT Dahl/SS rats, 50 or 100 ng/kg/day s.c. (pooled), FIG. 1E",approximately 70%
same,cardiomyocyte size,[2]; FIG. 3B,preserved
same,t-tubule density,[2]; FIG. 3C,normal
same,increase of maximal intracellular distance from each point in the cytosol to the nearest t-tubule or surface membrane,[2]; FIG. 3D,prevented
